From publication PMC6279743, “A small molecule ApoE4-targeted therapeutic candidate that normalizes sirtuin 1 levels and improves cognition in an Alzheimer’s disease mouse model” (Scientific Reports, 2018)
“Also recorded” adds a separate entry of the source. Where two headings read alike, the source gives them in different places.

What was measured:
[1] = Pharmacokinetics after oral delivery in mice; assay type: in vivo; conditions: oral 10 mg/kg; for Tmax / AUC: mouse; for Tmax: brain, n = 1 per time point; for AUC: plasma; for AUC / AUC brain: 1-8 hours
Method: All in vivo experiments described were carried out in strict accordance with good animal practice according to NIH recommendations. All procedures for animal use were approved by the Animal Research Committee (ARC) at UCLA and under an approved ARC protocol. Pharmacokinetic (PK) analysis[68]–[70] consisted of oral delivery of compounds (10 mg/Kg) to individual mice followed by euthanasia at 1, 2, 4, 6, and 8 hours post-dose by ketamine/xylazine over-anesthesia, blood collection by cardiac puncture, and transcardial saline perfusion. Whole blood was centrifuged at 5000 rpm for 10 min. in a 5 °C centrifuge to isolate plasma and the plasma stored at −20 °C before analysis. Whole brains were collected, dissected down the midline, snap frozen on dry ice, and stored at −80 °C before analysis. The levels of the compounds in both plasma and brain tissue were determined by a quantitative LC/MS/MS methodology at Integrated Analytical Solutions (IAS, Berkeley, CA). Plasma samples were precipitated with an acetonitrile: methanol (1:1) cocktail containing an internal standard. Brain samples were homogenized directly in ethyl acetate by the liquid-liquid method. The resulting supernatant was evaporated to dryness and subjected to LC/MS/MS analysis. The Tmax, Cmax, brain-to-plasma ratios and brain levels were then calculated using PK Solutions software (SummitPK).

[2] = Pharmacokinetics after subcutaneous (SQ) injection in mice; assay type: in vivo; conditions: mouse, mice, SQ 10 mg/kg; for Cmax: brain, n = 1, read-out: Cmax in brain
[3] = Parallel Artificial Membrane Permeability Assay (PAMPA; IAM column); assay type: in vitro ADME; conditions: for retention time (Tr) in PAMPA: IAM.PC.DD2 column, acetonitrile:PBS (pH 5.6) 35:65; for KIAM: KIAM = (Tr-T0)/T0, T0 = 1.24 min; for (KIAM/MW^4) * 10^−(10): MW 255.74 g/mol
Method: We used L(+)tartaric acid to isolate the L-enantiomer salt and D(-) tartaric acid to isolate the D-enantiomer salt, followed by neutralization of the salt with NaOH and re-crystallization to obtain the enantiomers. Enantiomer abundance (Supplementary Fig. S4) was determined by HPLC using a Chiralpak IB column. Isopropanol (0.2% diethylamine)/hexanes was used for gradient elution with 5–50% isopropanol (0.2% diethylamine) for 11 min, a Chiralpak IB column, and with sample (1 μL, 1.25 mg/mL) injection, 220 nm wavelength detection, and a flow rate of 1 mL/min. […] The L-alanine analog co-elutes with enantiomer-1 while the D-alanine analog co-elutes with enantiomer-2. Analysis of the enantiomers and A03 in the Parallel Artificial Membrane Permeability Assay (PAMPA) was performed and is described in Supplementary Methods. […]
PAMPA. An IAM.PC.DD2 Regis Technologies analytical (10 cm x 4.6 mm) column wherein phospholipid is bonded on 10 μm, 300 Å, spherical aminopropyl silica and end capped with C10 and C3 amides was used to determine membrane permeability of A03, E1 and E2. An isocratic method was used with a mobile phase comprising acetonitrile:PBS (pH 5.6) equal to 35:65, an injection volume of 5 µL, and a flow rate of 1 mL/min. The parameters determined are Tr = retention time of compound; KIAM= (Tr-T0)/T0; T0= is the delay time of the column, determined by use of 100 µg/mL citric acid) and was T0= 1.24 min; and (KIAM/MW4)*10-(10). The molecular weight of all three compounds was 255.74 g/mol. […]
Supplementary Fig. S1. […] (a) Transient transfection with either
ApoE3 or E4 decreased SirT1 levels as compared to empty vector (Pc/DMSO), but the decrease was greater with […]

[4] = test system: SirT1 levels in N2a-E4 cells; assay: SirT1 AlphaLISA in N2a-E4 cells (HTS, secondary and dose-response testing); assay type: cell-based, murine; conditions: for SirT1 increase, racemate vs enantiomers: 5 and 50 μM, n = 3 wells; for Dose-response increase in SirT1 in secondary testing: N2a-E4 cells, 1, 5 and 10 μM; for SirT1 level in HTS: 24 hrs, NIH Clinical Collection screen, A03 5 μM as positive control
Method: For HTS we tested a portion of the UCLA compound library (10 plates) including the NIH Clinical Collection library (3 plates). Complete medium (25 µL) was added to each well of 384-well plates, then library compounds were added (250 nL) followed by a suspension of 4 × 10^5 cells/mL murine neuroblastoma N2a cells (25 μL) stably transfected with ApoE4 (N2a-E4). After incubation of the N2a-E4 cells with compounds for 24 hrs at 37 °C and 5% CO2, all but ~6 μL of medium were removed and AlphaLISA Lysis Buffer complemented with HALT protease/phosphatase inhibitor (20 μL, 1X final) was added to each well. To maximize lysis, the plates were frozen at −80 °C. For the AlphaLISA, lysates were thawed and vortexed for 1 min at 3000 rpm.
The AlphaLISA comprises streptavidin donor beads, biotinylated anti-SirT1 N-terminal antibody (19A7AB4), and acceptor beads conjugated to the anti-SirT1 C-terminal antibody (1F3); when the target protein is bound by both antibodies, the beads are in close enough proximity for a transfer of ^1O2 and emission of a detectable signal (Supplementary Fig. S3). For the AlphaLISA, a 384-proxy plate was preloaded with AlphaLISA buffer (2 µL, 1X) with HALT (1X), then cell lysate (2 μL) was transferred to the proxy plate followed by the antibody-mix (2 μL). After incubation at room temperature for 1 hr, the donor bead mixture was added (2 µL) and incubated for an additional 30 min. The plates were then read in an Envision plate reader. All points are one replicate. The standard curve is generated by serial dilution of recombinant SirT1 to assess the linear range of the assay; study samples undergo serial dilution as well. We use A03 as a positive control in the HTS assay. The Z-value, while not ideal, was <1 for the assay (Supplementary Fig. S3).
Compound in medium (50 µL, 2X) was loaded into a 96-well plate, then 4 × 10^4 cells were added to each well; 24 hrs later the medium was removed and cells lysed. Lysate protein concentration was determined using the Bradford assay according to the manufacturer’s instructions. SirT1 was determined in lysates using the SirT1 AlphaLISA as described above.

[5] = Brain compound levels 2 hours after the last dose in efficacy studies; assay type: in vivo, mice; conditions: pilot study, SQ 10 mg/kg/day, 28 days, n = 8
Method: Mice were euthanized and blood/tissues collected 2 hrs after dosing on day 28 by the method described above for PK. Frontal and parietal cortices (FrCx and PtCx, respectively), as well as the remaining brain tissue, from individual mice were dissected, snap frozen on dry ice, and stored at −80 °C. Plasma samples and the brain tissue minus the FrCx and PtCx (the ‘rest’) from all compound-treated mice were sent to IAS for compound level analysis as described above.
Mice were euthanized and blood/tissues collected 2 hrs after dosing on Day 25 by the method described above for PK. FrCx, PtCx, and hippocampi (Hip) were collected from all mice for SirT1 and sAPPα level determination by AlphaLISA. Protein concentration was determined using a Bradford protein assay. Brain and plasma levels of A03 were determined at IAS.
Mice were euthanized and blood/tissues collected 2 hrs after dosing on Day 56 by the method described above for PK. Hip and FrCx were collected for analysis of SirT1, sAPPα, and Aβ1-42 levels by AlphaLISA. For Aβ1-42 the Perkin Elmer kit AL276C was used. Protein concentrations were determined using the Bradford protein assay. The sAPPα and sAPPβ AlphaLISAs were similar to the SirT1 AlphaLISA (see Supplementary Fig. S3) but the former uses anti-sAPPα antibody AF1168 and 2B3-biotinylated antibodies and the latter an anti-sAPPβ antibody (IBL Cat. #18957) and an anti-N-terminal APP antibody (R&D Systems AF1168) instead of anti-SirT1 antibodies. Brain tissue and plasma were sent to IAS for A03 level analysis.

humans = test system: humans; parameters: method as in PMID 22616762; conditions: cited from earlier work
[6] = secondary assay, N2a-E4 cells, n = 6 wells

Structure (SMILES) | Tmax [1] | AUC [1] | AUC brain [1] | retention time (Tr) in PAMPA [3] | KIAM [3] | (KIAM/MW^4) * 10^−(10) [3] | SirT1 increase, racemate vs enantiomers ([4]; N2a-E4 cells) | Dose-response increase in SirT1 in secondary testing [4] | SirT1 level in HTS ([4]; N2a-E4 cells) | SirT1 increase vs DMSO control at 1 μM [4, 6] | further results
C[C@H](N)C(=O)OC(C)(C)Cc1ccc(Cl)cc1 [E1] | 1 h | 86 ng·h/mL | 850 ng·h/g | 3.3 | 1.66 | 3.88 | more effective in increasing SirT1 in vitro compared to the optical antipode E2; also recorded: increase SirT1 in N2a-E4 with high significance |  |  |  | Cmax ([2]; sc): ~5600 ng/g; Cmax ([2]; subcutaneous): ~5800 ng/g; AUC ([2]; plasma, sc): 657 ng·h/mL; Brain levels 2 hours after the last dose, E1 vs A03 [5]: slightly lower
C[C@@H](N)C(=O)OC(C)(C)Cc1ccc(Cl)cc1 [E2] | 1 h | 104 ng·h/mL | 806 ng·h/g | 3.31 | 1.67 | 3.90 | shows lower potency |  |  |  | 
Cc1nc(-c2cccnc2)sc1C(=O)Nc1ccccc1-c1cn2c(CN3CCOCC3)csc2n1 [SRT2104] |  |  |  |  |  |  |  |  |  |  | Tolerability after single and multiple oral dosing (humans): well tolerated
CNCCC(Oc1ccc(C(F)(F)F)cc1)c1ccccc1 (centres unmarked) [fluoxetine, reference compound] |  |  |  |  |  |  |  | neither fluoxetine nor memantine (Fig. 3a) elicited a dose-response increase in SirT1 | neither fluoxetine nor memantine enhanced SirT1 | only A03 and memantine at 1 μM elicited modest but significant increases | 
CC12CC3CC(C)(C1)CC(N)(C3)C2 [memantine, reference compound] |  |  |  |  |  |  |  | neither fluoxetine nor memantine (Fig. 3a) elicited a dose-response increase in SirT1 | neither fluoxetine nor memantine enhanced SirT1 | modest but significant increases | SirT1 increase vs DMSO control at 5 and 10 μM ([4]; secondary assay, N2a-E4 cells, 5 and 10 μM, n = 6 wells): not at 5 or 10 μM
